Experimental data as given in ChEMBL document CHEMBL3769390, “Inhibitors of the Antiapoptotic Myeloid Cell Leukemia-1 (Mcl-1) May Provide Effective Treatment for Cancer” (ACS Med Chem Lett, 2015).

How the values were obtained:
[1] = Inhibition of Bcl-2 (residues i_207 A96T/G110R, delta 35-91, replaced with Bcl-xL35-50) (unknown origin) using FITC-AHx-GQVGRQLAIIGDDINR-NH2 as substrate after 90 mins by fluorescence polarization anisotropy competition assay; design: species or system Homo sapiens
[2] = Antiproliferative activity against human ALMC2 cells after 72 hrs by Cell TiterGlo assay; assay type: functional, cell-based; details: ALMC2, 72 h
[3] = Inhibition of Bcl-xL (residues 1-209, loop 45 to 86 deleted) (unknown origin) using FITC-AHx-GQVGRQLAIIGDDINR-NH2 as substrate after 90 mins by fluorescence polarization anisotropy competition assay; design: species or system Homo sapiens
[4] = molecular target: T1, Induced myeloid leukemia cell differentiation protein Mcl-1 (Homo sapiens, UniProt Q07820); assay: Inhibition of recombinant Mcl-1 (residues 172-327) (unknown origin) using FITC-AHx-GQVGRQLAIIGDDINR-NH2 as substrate after 90 mins by fluorescence polarization anisotropy competition assay
T1 sequence (Q07820 whole entry, the tested form may be a part): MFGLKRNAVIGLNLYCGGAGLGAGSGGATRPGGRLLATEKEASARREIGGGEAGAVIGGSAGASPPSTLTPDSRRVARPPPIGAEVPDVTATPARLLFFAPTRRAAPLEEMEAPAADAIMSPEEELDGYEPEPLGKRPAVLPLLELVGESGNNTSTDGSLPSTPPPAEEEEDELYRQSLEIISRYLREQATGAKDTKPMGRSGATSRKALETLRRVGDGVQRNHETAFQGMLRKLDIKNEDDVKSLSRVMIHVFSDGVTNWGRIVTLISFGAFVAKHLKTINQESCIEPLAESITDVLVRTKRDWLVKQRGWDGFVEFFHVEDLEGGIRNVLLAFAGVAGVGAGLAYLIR

K562 = assay: Antiproliferative activity against human K562 cells after 72 hrs by Cell TiterGlo assay; assay type: functional, cell-based; details: K562, 72 h
[5] = molecular target: T1, Induced myeloid leukemia cell differentiation protein Mcl-1; assay: Inhibition of recombinant Mcl-1 (residues 172-327) (unknown origin) using FITC-AHx-EARIAQELRRIGDEFNETYTR-NH2 as substrate after 90 mins by fluorescence polarization anisotropy competition assay
[6] = Antiproliferative activity against human ALMC1 cells after 72 hrs by Cell TiterGlo assay; assay type: functional, cell-based; details: ALMC1, 72 h
[7] = Antiproliferative activity against human NCI-H929 cells after 72 hrs by Cell TiterGlo assay; assay type: functional, cell-based; details: NCI-H929, 72 h
[8] = Antiproliferative activity against human OPM2 cells after 72 hrs by Cell TiterGlo assay; assay type: functional, cell-based; details: OPM-2, 72 h

SMILES	Ki [1] [µM]	IC50 [2] [µM]	Ki [3] [µM]	Ki [4] [µM]	IC50 (K562) [µM]	Ki [5] [µM]	IC50 [6] [µM]	IC50 [7] [µM]	IC50 [8] [µM]
Cc1cc(OCCCc2c3n(c4c(-c5c(C)nn(C)c5C)cccc24)CCN(Cc2cccc(C(=O)O)c2)C3=O)cc(C)c1Cl	6.44	33.9	2.2	< 0.007	40	< 0.05	13.1	15	16.3
Cc1cc(OCCCc2c3n(c4c(-c5c(C)nn(C)c5C)c(Cl)ccc24)CCCN(c2cccc(C(=O)O)c2)C3=O)cc(C)c1Cl	–	20.8	1.9	–	23.2	–	12	6.3	–
Cc1cc(OCCCc2c(C(=O)NC(C)(C)C)[nH]c3ccccc23)cc(C)c1Cl	–	–	–	–	–	1	–	–	–
Cc1cc(OCCCc2c(C(=O)Nc3ccc(C#N)cc3)[nH]c3c(-c4c(C)nn(C)c4C)c(Cl)ccc23)cc(C)c1Cl	–	–	–	–	–	0.051	–	–	–
Cc1cc(OCCCc2c(C(=O)NCc3cc(C(=O)O)n(C)c3)[nH]c3c(-c4c(C)nn(C)c4C)cccc23)cc(C)c1Cl	> 100	–	3.54	–	–	< 0.05	–	–	–
Cc1cc(OCCCc2c(C(=O)NCc3cc(C(=O)O)ccn3)[nH]c3c(-c4c(C)nn(C)c4C)cccc23)cc(C)c1Cl	27	–	7.9	–	–	–	–	–	–
